Data as given in patent US10000771B2, “Nuclear targeting sequences” (Yeda Research and Development Co. Ltd., priority 2007, dated 2018).
Ends that are not written are not given here. 2GFP = dimer of GFP proteins

Columns and labels:
SPS domain = experiment: SPS phosphorylation detected by anti pSPS Ab Western blot; type: cell-based; conditions: COS7 cells; for SPS phosphorylation upon stimulation (anti pSPS Ab recognition): stimulated with VOOH, TPA, EGF or TGFβ, immunoprecipitation and Western blot
Protocol: FIGS. 4A-4I are autoradiographs characterizing SPS phosphorylation using an Ab to the phosphorylated SPS domain. FIG. 4A illustrates an elevation of pSPS detection upon stimulation. COS cells were transfected with WT-GFP-ERK2. Twenty-four hr after transfection, the cells were serum-starved for 16 hr and subsequently treated with the general stimulator VOOH (V, 100 μM Na3VO4 and 200 μM H2O2, 15 min), TPA (T, 250 nM, 15 min), EGF (E, 50 ng/ml for 15 min), or left untreated (NT). The GFP-ERK2 was immunoprecipitated with anti GFP Ab, extensively washed, and the IP was then subjected to Western blotting with anti phospho SPS-ERK (αphoSPS-ERK) and anti general ERK (αgen-ERK) Abs. FIG. 4B is a time course of SPS phosphorylation. COS7 cells overexpressing WT-GFP-ERK2 were serum starved followed by EGF stimulation for the indicated time points. The lysates were then subjected to Western blot analysis as in FIG. 4A. FIGS. 4C-D. GFP-ERK2 was immunoprecipitated from VOOH stimulated (Act) or non-stimulated (NT), transfected COS7 cells as above. The immunoprecipitated protein was then incubated with shrimp's alkaline phosphates (SAP, 15 units, 30 min, 30° C. in the manufacturer digestion buffer), and subjected to Western blot analysis with anti phosphoSPS-ERK (αpSPS; FIG. 4C), anti phosphoTEY-ERK (αpTEY; FIG. 4D), and anti general-ERK Ab (αgen-ERK; FIGS. 4C, D). FIG. 4E. Elevation of anti pSPS Ab immunoreactivity upon stimulation of endogenous ERKs. Following serum starvation COS7 cells were treated with EGF (50 ng/ml) or VOOH (V, 100 μM Na3VO4 and 200 μM H2O2) for the indicated times. SPS phosphorylation was detected using the anti pSPS Abs, and this was compared to the amount of genral ERKs detected by αgERK. FIG. 4F. Specificity of the anti pSPS Ab. COS7 cells overexpressing either GFP-ERK2 or 244-6A mutant were serum starved for 16 hr, and then treated with EGF (50 ng/ml) for 15 min following WB analysis using αpSPS and αgERK Abs. FIG. 4G. TEY phosphorylation is not required for SPS phosphorylation. COS7 cells overexpressing WT-ERK2 or TEY-AAA were treated as described in D. FIG. 4H. COS7 cells were treated with or without UO126 prior (15 min) to EGF (50 ng/ml) stimulation for the indicated times. SPS-phosphorylation was detected using αpSPS and αgERK Abs. FIG. 4I. Phosphorylation of SPS is mediated by ERK autophosphorylation. […] The phosphorylation (^32P-ERK2) of ERK and its mutants was detected by autoradiography. […]
FIG. 9B is an autoradiograph illustrating that stimulation elevates pSPS phosphorylation of 2GFP-SPS construct. […] The total amount of immunoprecipitated 2GFP-SPS was detected with αGFP Ab. […]

importin-7 = biological target: T1, importin-7 (Homo sapiens, UniProt O95373); experiment: Coimmunoprecipitation with importin-7; type: binding; conditions: HeLa cells
T1 construct: endogenous in cells; host or cells: HeLa
T1 sequence (O95373 whole entry): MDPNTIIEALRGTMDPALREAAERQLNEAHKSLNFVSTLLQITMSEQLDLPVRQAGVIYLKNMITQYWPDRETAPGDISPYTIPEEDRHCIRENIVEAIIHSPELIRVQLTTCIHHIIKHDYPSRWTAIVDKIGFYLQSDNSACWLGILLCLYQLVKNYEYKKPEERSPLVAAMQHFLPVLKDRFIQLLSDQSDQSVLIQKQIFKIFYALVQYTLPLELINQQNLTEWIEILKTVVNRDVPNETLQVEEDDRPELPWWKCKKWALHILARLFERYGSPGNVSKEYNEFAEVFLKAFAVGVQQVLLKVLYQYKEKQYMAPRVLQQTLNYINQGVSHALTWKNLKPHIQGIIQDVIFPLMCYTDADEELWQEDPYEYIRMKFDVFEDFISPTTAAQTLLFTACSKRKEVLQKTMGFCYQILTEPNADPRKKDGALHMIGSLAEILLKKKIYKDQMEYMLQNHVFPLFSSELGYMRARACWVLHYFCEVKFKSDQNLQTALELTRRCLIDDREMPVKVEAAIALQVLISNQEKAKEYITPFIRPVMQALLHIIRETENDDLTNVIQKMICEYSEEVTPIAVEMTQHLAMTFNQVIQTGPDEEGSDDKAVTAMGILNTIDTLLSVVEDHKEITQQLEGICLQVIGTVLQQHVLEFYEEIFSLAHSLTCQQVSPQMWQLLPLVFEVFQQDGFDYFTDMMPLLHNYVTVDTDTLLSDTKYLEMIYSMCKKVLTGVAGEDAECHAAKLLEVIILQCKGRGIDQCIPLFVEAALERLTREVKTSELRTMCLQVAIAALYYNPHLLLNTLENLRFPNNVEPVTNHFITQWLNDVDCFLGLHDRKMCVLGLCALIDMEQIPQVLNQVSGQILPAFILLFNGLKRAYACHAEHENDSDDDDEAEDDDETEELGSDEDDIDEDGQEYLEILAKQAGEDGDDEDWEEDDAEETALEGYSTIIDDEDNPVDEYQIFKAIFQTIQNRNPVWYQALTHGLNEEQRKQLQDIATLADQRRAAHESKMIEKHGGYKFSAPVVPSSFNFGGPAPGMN
Protocol: FIGS. 19A-19C are autoradiographs illustrating that phospho-SPS interacts with importin-7 and releases Nup153c binding without involvment of importin-β. […]. Interaction of ERK2 with Importin-7 is enhanced by EGF stimulation and EPE mutation. HeLa cells overexpressing WT-ERK (WT), ERK-APA (APA), ERK-EPE (EPE) or GFP were serum starved and treated with EGF (50 ng/ml, 10 min). The extracts of the treated cells were then subjected to coimmunoprecipitation using A/G beads pre-conjugated with anti GFP Ab and mild washes. The coimmunoprecipitated importin-7 (first panel) and importin-β (third panel), as well as their loading amounts (panels 2 and 4 respectively) were determined by WB using anti importin-7 (αImp7) and importin-β (αImpβ) Abs. The equal amount of immunoprecipitated ERKs was determined with anti GFP (αGFP; IP) Ab. FIG. 19B. Interaction of 2GFP-SPS and its mutants with importin-7. HeLa cells overexpressing 2GFP, 2GFP-SPS, 2GFP-APA and 2GFP-EPE constructs were subjected to coimmunoprecipitation as described in FIG. 19A (without EGF stimulation). FIG. 19C. Interaction of NUP153 with WTERK2 and its APA and EPE mutants. NUP153c is elevated in APA-ERK2, but reduced in EPE-ERK2. Immunoprecipitated and stringently washed WT-ERK2 (WT), APA-ERK2 (APA) or ERK2 from […] cells pre-treated with or without TPA (250 nM, 15 min) were incubated with 0.5 μg recombinant His-Nup153c. This was followed by mild washing, and the beads were then subjected to Western blot analysis using anti His (αHis) and anti αGFP Abs.
Immunoprecipitation. Cellular extracts of stimulated transfected cells, were incubated with anti-GFP antibody preconugated to A/G beads (Santa Cruz; (2 hr, 4° C.). Subsequently, the beads were washed twice with HNTG buffer and once with 0.5 M LiCl. The immunoprecipitates were subjected either to Western blotting as described above or to an in vitro phosphatase assay as described under Results.

Substance | SPS phosphorylation upon stimulation (anti pSPS Ab recognition) (SPS domain) | interaction of 2GFP constructs with importin-7 (importin-7; coimmunoprecipitation, without EGF stimulation) | time of peak SPS phosphorylation (SPS domain; following EGF stimulation) [min] | interaction of ERK2 constructs with importin-7 (importin-7; coimmunoprecipitation with anti GFP Ab, with or without stimulation)
2GFP-SPS: 2GFP with the 19 amino acid stretch containing the SPS of ERK2 (SEQ ID NO: 6) fused to its C terminus (2GFP-LDQLNHILGILGSPSQEDL) | elevates | did bind importin-7 | – | –
WT-ERK2: wild-type ERK2 fused to GFP, prepared in pEGFP C1 [reference compound] | significantly increased | – | 15 | significantly increased upon TPA stimulation
